Results reported in patent publication US8785424B2, “ngCycloartanone derivatives with anticancer activity” (Pierre Fabre Medicament, priority 2009, dated 2014).

Tested on: proteasome
Test: Cellular proteasome inhibition test: accumulation of 4Ub-Luc reporter (luciferase activity) in DLD-1 4Ub-Luc cell line
Format: cell-based, human
Settings: DLD-1 4Ub-Luc cells, 8 hours, epoxomicin = 100%
Description: Biological tests were carried out according to protocols described in the following articles: Ausseil F. et al. J. Biomol Screen. 2007, 12, 106-116 and Vandenberghe I. et al. Biochemical Pharmacology 2008, 76, 453-462.
In order to select novel proteasome inhibitor compounds, it is necessary to indirectly measure the activity of this proteasome within cells. To this end, we constructed a stable cell line, DLD-1 4Ub-Luc, arising from a human colon cancer cell line, which produces a chimeric reporter protein called 4Ub-Luc. This protein is a fusion between a 4-ubiquitin (4Ub) label and luciferase (Luc). This label is capable to direct every proteins that carry it toward the proteasome. The 4Ub-Luc protein is thus efficiently degraded by the proteasome, in contrast to the “wild” non-fused Luc protein. When the DLD-1 4Ub-Luc cell line is treated with a proteasome inhibitor, the fusion protein is much less efficiently degraded and accumulates in the cell. This accumulation is detected by an increase in luciferase activity in the treated extract compared to the extract from untreated cells. The control consists of verifying that the inhibitor has no effect on accumulation of the wild Luc protein produced by the stable DLD-1 RF cell line. For both cell lines and for each product an induction factor is determined for the product tested (or the reference) corresponding to the ratio between the luciferase activities measured in cells treated with this product (or the reference) and cells treated with solvent alone.
The product's activity is then defined by its relative induction factor, i.e., the ratio of its induction factor (IF % luminescence) to that of the reference molecule epoxomicin (IF=100%; see data presented in the table below).
Thus, the test established by Pierre-Fabre is a cellular test that has the advantage, compared to a purely enzymatic test, of detecting only products capable of penetrating the cell.
Two cell lines are used for this test: DLD-1 RF and DLD-1 4Ub-Luc. The culture medium used is as follows: • MEM • 5% fetal calf serum • 5 ml of penicillin-streptomycin • 2.5 ml of FUNGIZONE® (Amphotericin B) • 10 ml of […]
Day 1: Inoculate white 96-well culture-treated plates (PerkinElmer White ViewPlate, product no. 6005181) with 100 μl of 1·10^5 c/ml cell suspension per well. Incubate for 24 hours so that the cells adhere. On each plate five columns will be inoculated with DLD-1 4Ub-Luc and five others with DLD-1 RF according to diagram 1 below.
Day 2: Remove the medium by turning the plates upside down on cotton, and then carry out the treatment with the compounds of the invention, with solvent alone or with a reference compound such as epoxomicin. […]
The columns are paired (examples 2 and 8, 3 and 9, 4 and 10 and 5 and 11) and treated with the same compound. Columns 6 and 7 receive the experimental control, namely 0.1% DMSO in culture medium for wells B, C, D, and E of columns 6 and 7, and the positive control (10^−7 M epoxomicin) in wells F and G.
After incubation, turn the plate upside down on cotton to empty the wells, rinse with 50 μl of PBS to remove any trace of the cytotoxin tested and then add 50 μl of 5× passive lysis buffer (Promega, product no. E1941) diluted to ⅕ in water. Shake energetically using a plate shaker for 5 to 10 minutes at room temperature before freezing at −20° C.
Luciferase activity is measured using a Luciferase Assay System 10-Pack kit (Promega, product no. E1501).
On the day luciferase activity is to be measured, defrost the plates and wait until they have returned to room temperature. The optimal temperature for luciferase activity is 20-25° C.
Reconstitute the firefly luciferase substrate by defrosting the buffer and then adding 10 ml of buffer to the bottle containing the freeze-dried substrate. Wait until the solution is at room temperature before beginning the assay. […]

[1] = concentration tested 5 · 10^−6 M
[2] = concentration tested 5 · 10^−7 M

SMILES	relative induction factor (IF % luminescence) versus epoxomicin [1]	relative induction factor (IF % luminescence) versus epoxomicin [2]	relative induction factor (IF % luminescence) versus epoxomicin (concentration tested 10^−5 M)	relative induction factor (IF % luminescence) versus epoxomicin (concentration tested 10^−6 M)
C=C(C(=O)[C@H](O)[C@@H](C)[C@H]1[C@@H](OC(C)=O)C[C@@]2(C)[C@@H]3CC[C@H]4[C@H](C)C(=O)C=C[C@@]45C[C@@]35CC[C@]12C)[C@@H](C)CO [Compound 1, 22-deacetyl-neoboutomellerone]	28%	1%	3%	45%
C=C(C(=O)[C@H](OC(C)=O)[C@@H](C)[C@H]1[C@@H](OC(C)=O)C[C@@]2(C)[C@@H]3CC[C@H]4[C@H](C)C(=O)C=C[C@@]45C[C@@]35CC[C@]12C)[C@@H](C)CO [Compound 2, Neoboutomellerone]	37%	2%	4%	48%
C=C(C(=O)[C@H](OC(C)=O)[C@@H](C)[C@H]1[C@@H](OC(C)=O)C[C@@]2(C)C3CCC4C(C)C(=O)C=CC45CC35CC[C@]12C)[C@@H](C)CO (stereo partly drawn) [Compound 4, Diastereoisomer of Ring A of Neoboutomellerone]	84%		24%	2%
C=C(C(=O)[C@H](OC(C)=O)[C@@H](C)[C@H]1[C@@H](OC(C)=O)C[C@@]2(C)[C@@H]3C[C@@H](O)[C@H]4[C@H](C)C(=O)C=C[C@@]45C[C@@]35CC[C@]12C)[C@@H](C)CO [Compound 6, 6-hydroxy-neoboutomellerone]	31%			5%
C=C(C(=O)[C@H](O)[C@@H](C)[C@H]1[C@@H](OC(C)=O)C[C@@]2(C)[C@@H]3CC[C@H]4[C@H](C)C(=O)C=C[C@@]45C[C@@]35CC[C@]12C)C(C)C [Compound 7, 22-deacetyl,26-dehydroxy-neoboutomellerone]	65%		21%	2%
C=C(C(=O)[C@H](OC(C)=O)[C@@H](C)[C@H]1[C@@H](OC(C)=O)C[C@@]2(C)[C@@H]3CC[C@H]4[C@H](C)C(=O)C=C[C@@]45C[C@@]35CC[C@]12C)C(C)C [Compound 8, 26-dehydroxy-neoboutomellerone]	74%		19%	7%
CC(=O)O[C@H]1C[C@@]2(C)[C@@H]3CC[C@H]4[C@H](C)C(=O)C=C[C@@]45C[C@@]35CC[C@]2(C)[C@H]1[C@H](C)[C@@H](OC(C)=O)C(=O)C=C(C)C [Compound 9, 26-dehydroxy,24,25-dehydro-nor-neoboutomellerone]	34%		44%	1%
CC(=O)O[C@H]1C[C@@]2(C)[C@@H]3CC[C@H]4[C@H](C)C(=O)C=C[C@@]45C[C@@]35CC[C@]2(C)[C@H]1[C@H](C)[C@@H](O)C(=O)C=C(C)C [Compound 10, 22-deacetyl,26-dehydroxy,24,25-dehydro-nor-neoboutomellerone]	5%		53%	1%
C=C(C(=O)[C@H](OC(C)=O)[C@@H](C)[C@H]1[C@@H](OC(C)=O)C[C@@]2(C)[C@@H]3CC[C@H]4[C@H](C)C(=O)CC[C@@]45C[C@@]35CC[C@]12C)[C@@H](C)CO [Compound 11, 1,2-dihydro-neoboutomellerone]	45%		48%	1%
C=C(C(=O)[C@H](OC(C)=O)[C@@H](C)[C@H]1[C@@H](OC(C)=O)C[C@@]2(C)[C@@H]3[C@H]4O[C@H]4[C@H]4[C@H](C)C(=O)C=C[C@@]45C[C@@]35CC[C@]12C)[C@@H](C)CO [Compound 12, 6,7-epoxy-neoboutomellerone]	72%		15%	3%
C=C(C(=O)C(OC(C)=O)C(C)[C@H]1[C@@H](OC(C)=O)C[C@@]2(C)[C@@H]3CC[C@H]4[C@H](C)C(=O)C=C[C@@]45C[C@@]35CC[C@]12C)C(C)CO (stereo partly drawn) [Compound 13, Diastereoisomer on the Side Chain of Neoboutomellerone]	71%		60%	2%
C=C(C(=O)[C@H](O)[C@@H](C)[C@H]1[C@@H](OC(C)=O)C[C@@]2(C)[C@@H]3CC[C@H]4[C@H](C)C(=O)CC[C@@]45C[C@@]35CC[C@]12C)[C@@H](C)CO [Compound 14, 1,2-dihydro-22-deacetyl-neoboutomellerone]	10%		77%	1%
C=C(C(=O)[C@H](O)[C@@H](C)[C@H]1[C@@H](OC(C)=O)C[C@@]2(C)[C@@H]3CC[C@H]4[C@H](C)C(=O)C[C@H](O)[C@@]45C[C@@]35CC[C@]12C)[C@@H](C)CO [Compound 15, 1-hydroxy-2-hydro-22-deacetyl-neoboutomellerone]	11%		74%	2%
C=C(C(=O)[C@H](O)[C@@H](C)[C@H]1[C@@H](OC(C)=O)C[C@@]2(C)[C@@H]3C[C@@H](O)[C@H]4[C@H](C)C(=O)C=C[C@@]45C[C@@]35CC[C@]12C)[C@@H](C)CO [Compound 16, 6-hydroxy-22-deacetyl-neoboutomellerone]	35%			1%
C=C(C(=O)[C@H](O)[C@@H](C)[C@H]1[C@@H](OC(C)=O)C[C@@]2(C)C3CCC4[C@H](C)C(=O)C=C[C@@]45C[C@@]35CC[C@]12C)[C@@H](C)COC(C)=O (stereo partly shown) [Compound 17, 26-acetyl-22-deacetyl-neoboutomellerone]	29%	2%	6%	26%
C=C(C(=O)[C@H](OC(C)=O)[C@@H](C)[C@H]1[C@@H](OC(C)=O)C[C@@]2(C)[C@@H]3CC[C@H]4[C@H](C)C(=O)C=C[C@@]45C[C@@]35CC[C@]12C)[C@@H](C)COC(C)=O [Compound 18, 26-acetyl-neoboutomellerone]	48%	1%		12%
C=C(C(=O)[C@H](OC(C)=O)[C@@H](C)[C@H]1[C@@H](OC(C)=O)C[C@@]2(C)[C@@H]3CC[C@H]4[C@H](C)C(=O)C=C[C@@]45C[C@@]35CC[C@]12C)[C@@H](C)COC [Compound 19, 26-methoxy-neoboutomellerone]	45%	1%		40%
